{"source": "patent US20130096185A1", "about": "“INACTIVATION OF miR-34a BY ABERRANT CpG METHYLATION IN CANCER” (priority 2008, published 2013)", "system": "miR-34a promoter", "experiment": "Bisulfite sequencing of miR-34a promoter CpG methylation after 5Aza-2′dC treatment", "type": "cell-based, human", "settings": "LAPC-4 cells", "text": "(a) Pattern of CpG methylation in the miR-34a promoter region in prostate epithelial cells and derived cancer cell lines. The depicted region corresponds to 2.5 kbp upstream of the transcriptional start site (TSS, position indicated by arrow). Vertical bars represent CpG-dinucleotides. The position of the p53 binding site is indicated. The horizontal bars indicate amplified PCR products which were sub-cloned and analyzed by sequencing (gray: distal fragment, black: proximal fragment). The combined results obtained by sequencing of 8 independent subclones are shown for each cell line. Black areas represent the degree of cytosine methylation at the respective CpG position. The white shaded areas indicate methylation after treatment of LAPC-4 cells with 5Aza-2′dC. The open rectangles correspond to the regions covered by the MSP primers. IVM DNA was used as positive control for amplification of the M product. BPH1: benign prostate hyperplasia cells immortalized with SV40 large T antigen. IVM: in vitro methylated DNA.\nReversion of genomic methylation. Cells were grown in the presence of 1 μM 5-aza-2′deoxycytidine (5Aza-2′dC, Sigma) for 72 hours and 300 nM trichostatin A (TSA, Sigma) for the last 24 hours. […]\nBisulfite sequencing. […] For each cell line at least 8 individual clones were sequenced on both strands using M13 primers and BigDye terminator, and analyzed on a 3700 capillary sequencer (Applera).", "data": [{"smiles": "Nc1ncn([C@H]2C[C@H](O)[C@@H](CO)O2)c(=O)n1", "note": "[5Aza-2′dC, 5-aza-2′deoxycytidine]", "values": [{"measurement": "level of CpG methylation of miR-34a", "value": "reduction in the level of CpG methylation"}]}]}
